Earlier results in patent US20260248829A1, “PHOSPHOLIPID COMPOSITIONS COMPRISING EPA AND/OR DHA FOR AMELIORATING NEURODEGENERATION AND AGE-RELATED NEURODEGENERATIVE DISORDERS” (Aker BioMarine Human Ingredients AS, priority 2022, published 2026).

Tested on: dopaminergic neurons in the nigro-striatal circuit
Details: young mice

CC1=C(/C=C/C(C)=C/C=C/C(C)=C/C=C/C=C(C)/C=C/C=C(C)/C=C/C2=C(C)C(=O)[C@@H](O)CC2(C)C)C(C)(C)C[C@H](O)C1=O [astaxanthin]
protection of dopaminergic neurons: protects
